In patent publication US10077277B2, “Bicyclic heteroarylaminoalkyl phenyl derivatives as PI3K inhibitors” (Incyte Corporation, priority 2014, dated 2018):
Counter-ions that a name gives are not always drawn. Like-named read-outs stand apart in the source and are kept apart here.

Columns and labels:
PI3Kδ (p110δ/p85α) = PI3Kδ (p110δ/p85α) (Homo sapiens (Human), UniProt O00329); assay: PI3Kδ scintillation proximity assay (Example A3); assay type: biochemical; conditions: Assay A3, 20 μM ATP
From the text: Example A3: PI3Kδ Scintillation Proximity Assay
[γ-^33P]ATP (10 mCi/mL) was purchased from PerkinElmer (Waltham, Mass.). Lipid kinase substrate, D-myo-Phosphatidylinositol 4,5-bisphosphate (PtdIns(4,5)P2)D (+)-sn-1,2-di-O-octanoylglyceryl, 3-O-phospho linked (PIP2), CAS 204858-53-7, was purchased from Echelon Biosciences (Salt Lake City, Utah). PI3Kδ (p110δ/p85α) was purchased from Millipore (Bedford, Mass.). ATP, MgCl2, DTT, EDTA, MOPS and CHAPS were purchased from SigmaAldrich (St. Louis, Mo.). Wheat Germ Agglutinin (WGA) YSi SPA Scintillation Beads was purchased from GE healthcare life sciences (Piscataway, N.J.).
The kinase reaction was conducted in polystyrene 384-well matrix white plate from Thermo Fisher Scientific in a final volume of 25 μL. Inhibitors were first diluted serially in DMSO and added to the plate wells before the addition of other reaction components. The final concentration of DMSO in the assay was 0.5%. The PI3K assays were carried out at room temperature in 20 mM MOPS, pH 6.7, 10 mM MgCl2, 5 mM DTT and CHAPS 0.03%. Reactions were initiated by the addition of ATP, the final reaction mixture consisted of 20 μM PIP2, 20 μM ATP, 0.2 μCi [γ-^33P] ATP, 4 nM PI3Kδ. Reactions were incubated for 210 min and terminated by the addition of 40 μL SPA beads suspended in quench buffer: 150 mM potassium phosphate pH 8.0, 20% glycerol. 25 mM EDTA, 400 μM ATP. The final concentration of SPA beads was 1.0 mg/mL. After the plate sealing, plates were shaken overnight at room temperature and centrifuged at 1800 rpm for 10 minutes, the radioactivity of the product was determined by scintillation counting on Topcount (PerkinElmer). IC50 determination was performed by fitting the curve of percent control activity versus the log of the inhibitor concentration using the GraphPad Prism 3.0 software. IC50 data for the Examples is presented in Table 2 as determined by Assay A3.

SUDHL-6 cells = assay: SUDHL-6 cell proliferation assay (Example B3); assay type: cell-based; conditions: 3 days, Cell Titer-GLO ATP quantitation, read-out: SUDHL6 IC50
Method: Example B3: SUDHL-6 Cell Proliferation Assay
SUDHL-6 cell line (diffuse large B cell lymphoma) was purchased from ATCC (Manassas, Va.) and maintained in the culture medium recommended (RPMI and 10% FBS). To measure the anti-proliferation activity of the compounds through ATP quantitation, the SUDHL-6 cells was plated with the culture medium (5000 cells/well/per 200 μl) into 96-well polystyrene clear black tissue culture plate (Greiner-bio-one through VWR, NJ) in the presence or absence of a concentration range of test compounds. After 3 days, Cell Titer-GLO Luminescent (Promega, Madison, Wis.) cell culture agent was added to each well for 10 minutes at room temperature to stabilize the luminescent signal. This determines the number of viable cells in culture based on quantitation of the ATP present, which signals the presence of metabolically active cells. Luminescence was measured with the TopCount 384 (Packard Bioscience through Perkin Elmer, Boston, Mass.). IC50 data for the Examples is presented in Table 3 determined by the assay of Example B3.

human JAK2 = human JAK2 (Homo sapiens (Human), UniProt O60674); assay: In vitro JAK kinase assay (Example J), JAK2; assay type: biochemical; conditions: ratio of IC50s, Assay J at 1 mM ATP
human JAK2, sequence (O60674 828-1132): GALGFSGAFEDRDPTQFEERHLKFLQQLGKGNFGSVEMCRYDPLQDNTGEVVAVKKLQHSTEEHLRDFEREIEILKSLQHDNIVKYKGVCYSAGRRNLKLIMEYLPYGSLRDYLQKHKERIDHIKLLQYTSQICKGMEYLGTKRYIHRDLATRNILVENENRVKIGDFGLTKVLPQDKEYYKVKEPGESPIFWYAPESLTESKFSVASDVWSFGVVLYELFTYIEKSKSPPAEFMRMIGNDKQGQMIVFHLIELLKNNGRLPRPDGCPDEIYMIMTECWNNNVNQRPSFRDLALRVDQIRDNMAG

PI3Kδ (p110δ/p85α), sequence (O00329 whole entry): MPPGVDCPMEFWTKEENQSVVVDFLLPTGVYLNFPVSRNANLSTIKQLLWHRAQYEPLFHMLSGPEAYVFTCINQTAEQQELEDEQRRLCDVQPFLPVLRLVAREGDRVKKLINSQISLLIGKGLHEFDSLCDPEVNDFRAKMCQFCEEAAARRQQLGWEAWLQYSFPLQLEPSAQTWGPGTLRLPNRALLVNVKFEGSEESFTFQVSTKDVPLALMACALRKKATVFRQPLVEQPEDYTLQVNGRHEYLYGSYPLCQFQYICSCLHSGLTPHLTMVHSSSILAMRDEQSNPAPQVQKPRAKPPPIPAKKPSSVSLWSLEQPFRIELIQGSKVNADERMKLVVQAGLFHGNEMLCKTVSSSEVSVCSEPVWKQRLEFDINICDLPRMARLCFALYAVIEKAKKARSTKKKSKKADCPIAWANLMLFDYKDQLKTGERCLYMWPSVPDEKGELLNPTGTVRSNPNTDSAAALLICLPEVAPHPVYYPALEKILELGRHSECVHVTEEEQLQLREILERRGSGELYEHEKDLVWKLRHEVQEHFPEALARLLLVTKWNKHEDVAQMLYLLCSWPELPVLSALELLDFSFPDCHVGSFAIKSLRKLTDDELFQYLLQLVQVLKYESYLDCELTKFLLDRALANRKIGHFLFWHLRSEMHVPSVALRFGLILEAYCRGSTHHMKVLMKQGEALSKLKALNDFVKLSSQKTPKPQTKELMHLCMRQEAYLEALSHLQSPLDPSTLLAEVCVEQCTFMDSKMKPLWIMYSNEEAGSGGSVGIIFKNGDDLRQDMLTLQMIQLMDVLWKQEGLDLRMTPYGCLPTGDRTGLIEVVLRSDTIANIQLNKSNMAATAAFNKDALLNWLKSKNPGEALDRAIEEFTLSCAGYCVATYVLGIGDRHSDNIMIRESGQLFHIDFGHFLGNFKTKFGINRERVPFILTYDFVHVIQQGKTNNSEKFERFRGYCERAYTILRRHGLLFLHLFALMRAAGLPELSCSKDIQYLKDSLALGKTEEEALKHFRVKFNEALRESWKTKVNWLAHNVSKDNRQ
PI3Kδ (p110δ/p85α), sequence (P27986 whole entry partner): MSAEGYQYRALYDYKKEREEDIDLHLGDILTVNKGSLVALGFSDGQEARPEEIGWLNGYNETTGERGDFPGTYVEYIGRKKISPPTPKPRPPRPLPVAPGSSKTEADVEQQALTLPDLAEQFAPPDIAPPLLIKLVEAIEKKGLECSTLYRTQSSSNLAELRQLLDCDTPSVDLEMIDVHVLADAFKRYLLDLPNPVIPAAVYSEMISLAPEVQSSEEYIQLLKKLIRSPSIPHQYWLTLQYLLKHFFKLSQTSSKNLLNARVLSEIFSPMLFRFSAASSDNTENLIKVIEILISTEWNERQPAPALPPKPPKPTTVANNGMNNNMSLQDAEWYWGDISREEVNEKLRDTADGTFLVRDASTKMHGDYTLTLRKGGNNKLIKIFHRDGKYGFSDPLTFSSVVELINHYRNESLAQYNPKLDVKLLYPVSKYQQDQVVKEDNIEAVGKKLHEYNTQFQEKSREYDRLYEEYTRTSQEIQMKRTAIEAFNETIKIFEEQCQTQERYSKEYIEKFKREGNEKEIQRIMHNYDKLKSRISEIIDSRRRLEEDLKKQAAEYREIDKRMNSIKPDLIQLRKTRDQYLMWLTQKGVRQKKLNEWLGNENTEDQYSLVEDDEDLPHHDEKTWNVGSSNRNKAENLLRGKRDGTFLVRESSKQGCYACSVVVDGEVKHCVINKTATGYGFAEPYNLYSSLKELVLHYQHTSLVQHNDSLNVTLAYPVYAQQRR

Row | SMILES | IC50 (PI3Kδ (p110δ/p85α)) [nM] | IC50 (SUDHL-6 cells; Homo sapiens, SU-DHL-6, 72 h) [nM] | IC50 (SUDHL-6 cells) [nM] | JAK2/JAK1 (human JAK2)
1 | CCNC(=O)c1c(C)c(Cl)cc(C(C)Nc2ncnc3cccnc23)c1-c1cc(F)cc(F)c1 (centres unmarked) [Example 4, 4-Chloro-N-ethyl-3′,5′-difluoro-3-methyl-6-[1-(pyrido[3,2-d]pyrimidin-4-ylamino)ethyl]biphenyl-2-carboxamide] | ≤ 100 | ≤ 500 | – | –
2 | CCOc1c([C@@H](C)Nc2ncnc3cccnc23)cc(Cl)c(F)c1[C@@H]1CNC(=O)C1 [Example 2A, 4-{3-chloro-6-ethoxy-2-fluoro-5-[1-(pyrido[3,2-d]pyrimidin-4-ylamino)ethyl]phenyl}pyrrolidin-2-one] | ≤ 100 | ≤ 500 | – | –
3 | CCOc1c(C(C)Nc2ncnc3scnc23)cc(Cl)c(F)c1C1CNC(=O)C1 (single isomer, unassigned) [Example 1C, 4-{3-chloro-6-ethoxy-2-fluoro-5-[1-([1,3]thiazolo[5,4-d]pyrimidin-7-ylamino)ethyl]phenyl}pyrrolidin-2-one] | ≤ 100 | – | ≤ 500 | –
4 | CCOc1c(C(C)Nc2ncnc3scnc23)cc(Cl)c(F)c1C1CNC(=O)C1 (single isomer, unassigned) [Example 1D, 4-{3-chloro-6-ethoxy-2-fluoro-5-[1-([1,3]thiazolo[5,4-d]pyrimidin-7-ylamino)ethyl]phenyl}pyrrolidin-2-one] | 100 to 400 | – | – | –
5 | CCOc1c(C(C)Nc2ncnc3scnc23)cc(Cl)c(F)c1C1CNC(=O)C1 (single isomer, unassigned) [Example 1B, 4-{3-chloro-6-ethoxy-2-fluoro-5-[1-([1,3]thiazolo[5,4-d]pyrimidin-7-ylamino)ethyl]phenyl}pyrrolidin-2-one] | 100 to 400 | – | – | –
6 | CCOc1c([C@@H](C)Nc2ncnc3cccnc23)cc(Cl)c(F)c1[C@@H]1CNC(=O)C1 (single isomer, unassigned) [Example 2B, 4-{3-chloro-6-ethoxy-2-fluoro-5-[1-(pyrido[3,2-d]pyrimidin-4-ylamino)ethyl]phenyl}pyrrolidin-2-one] | 100 to 400 | – | – | –
7 | CCOc1c([C@@H](C)Nc2ncnc3cccnc23)cc(Cl)c(F)c1[C@@H]1CNC(=O)C1 (single isomer, unassigned) [Example 2D, 4-{3-chloro-6-ethoxy-2-fluoro-5-[1-(pyrido[3,2-d]pyrimidin-4-ylamino)ethyl]phenyl}pyrrolidin-2-one] | 100 to 400 | – | – | –
8 | CCOc1c(C(C)Nc2ncnc3scnc23)cc(Cl)c(F)c1C1CNC(=O)C1 (centres unmarked) [Example 1, 4-{3-Chloro-6-ethoxy-2-fluoro-5-[1-([1,3]thiazolo[5,4-d]pyrimidin-7-ylamino)ethyl]phenyl}pyrrolidin-2-one trifluoroacetate] | ≤ 100 | – | – | >10
9 | COc1c([C@H](C)Nc2ncnc3cccnc23)cc(Cl)c(C)c1-c1ccc(C(=O)N(C)C)nc1 [Example 3, 5-{3-Chloro-6-methoxy-2-methyl-5-[(1S)-1-(pyrido[3,2-d]pyrimidin-4-ylamino)ethyl]phenyl}-N,N-dimethylpyridine-2-carboxamide bis(trifluoroacetate)] | ≤ 100 | ≤ 500 | – | –
10 | CCOc1c(C(C)Nc2ncnc3scnc23)cc(Cl)c(F)c1C1CNC(=O)C1 (single isomer, unassigned) [Example 1A, 4-{3-chloro-6-ethoxy-2-fluoro-5-[1-([1,3]thiazolo[5,4-d]pyrimidin-7-ylamino)ethyl]phenyl}pyrrolidin-2-one] | ≤ 100 | ≤ 500 | – | –
11 | CCOc1c(C(C)Nc2ncnc3cccnc23)cc(Cl)c(F)c1C1CNC(=O)C1 (centres unmarked) [Example 2, 4-{3-Chloro-6-ethoxy-2-fluoro-5-[1-(pyrido[3,2-d]pyrimidin-4-ylamino)ethyl]phenyl}pyrrolidin-2-one] | ≤ 100 | – | – | –
